Experimental data reported in US9120752B2, “Pyridine compounds as sodium channel blockers” (Purdue Pharma, L.P., priority 2010, dated 2015).

Key:
[1] = target: human Nav1.7 (Homo sapiens (Human), UniProt Q15858); assay: FLIPR or FLIPR TETRA sodium dye assay with KCl and test article pre-incubation; format: cell-based; conditions: sodium dye assay with KCl; recombinant Nav1.7/HEK293 cells; read-out: Nav1.7 IC50 (μM) ± SEM
[2] = test system: FCA-induced inflammation of the rat hind paw; assay: Freund's complete adjuvant (FCA) model of inflammatory pain, paw withdrawal threshold; format: in vivo
Procedure: Each experiment uses rats weighing between 200-260 g at the start of the experiment. The rats are group-housed and have free access to food and water at all times, except prior to oral administration of a test compound when food is removed for 16 hours before dosing. A control group acts as a comparison to rats treated with a compound of Formulae I-XIII. The control group is administered the carrier as used for the test compound. The volume of carrier administered to the control group is the same as the volume of carrier and test compound administered to the test group.
To assess the actions of the compounds of Formulae I-XIII on the treatment of inflammatory pain the Freund's complete adjuvant (“FCA”) model of inflammatory pain was used. […] 24 hour post injection, the animal was assessed for response to noxious mechanical stimuli by determining the paw withdrawal threshold (PWT), or to noxious thermal stimuli by determining the paw withdrawal latency (PWL), as described below. […] Responses to noxious mechanical or thermal stimuli were determined 1, 3, and 5 hours post administration (admin). […]
Sensitivity to noxious mechanical stimuli can be measured in animals using the paw pressure test to assess mechanical hyperalgesia. […] PWT is determined once for each rat at each time point. PWT can be measured only in the injured paw, or in both the injured and non-injured paw. […]

Chain of human Nav1.7 (Q15858 other isoform, or with tags, fused parts or gaps): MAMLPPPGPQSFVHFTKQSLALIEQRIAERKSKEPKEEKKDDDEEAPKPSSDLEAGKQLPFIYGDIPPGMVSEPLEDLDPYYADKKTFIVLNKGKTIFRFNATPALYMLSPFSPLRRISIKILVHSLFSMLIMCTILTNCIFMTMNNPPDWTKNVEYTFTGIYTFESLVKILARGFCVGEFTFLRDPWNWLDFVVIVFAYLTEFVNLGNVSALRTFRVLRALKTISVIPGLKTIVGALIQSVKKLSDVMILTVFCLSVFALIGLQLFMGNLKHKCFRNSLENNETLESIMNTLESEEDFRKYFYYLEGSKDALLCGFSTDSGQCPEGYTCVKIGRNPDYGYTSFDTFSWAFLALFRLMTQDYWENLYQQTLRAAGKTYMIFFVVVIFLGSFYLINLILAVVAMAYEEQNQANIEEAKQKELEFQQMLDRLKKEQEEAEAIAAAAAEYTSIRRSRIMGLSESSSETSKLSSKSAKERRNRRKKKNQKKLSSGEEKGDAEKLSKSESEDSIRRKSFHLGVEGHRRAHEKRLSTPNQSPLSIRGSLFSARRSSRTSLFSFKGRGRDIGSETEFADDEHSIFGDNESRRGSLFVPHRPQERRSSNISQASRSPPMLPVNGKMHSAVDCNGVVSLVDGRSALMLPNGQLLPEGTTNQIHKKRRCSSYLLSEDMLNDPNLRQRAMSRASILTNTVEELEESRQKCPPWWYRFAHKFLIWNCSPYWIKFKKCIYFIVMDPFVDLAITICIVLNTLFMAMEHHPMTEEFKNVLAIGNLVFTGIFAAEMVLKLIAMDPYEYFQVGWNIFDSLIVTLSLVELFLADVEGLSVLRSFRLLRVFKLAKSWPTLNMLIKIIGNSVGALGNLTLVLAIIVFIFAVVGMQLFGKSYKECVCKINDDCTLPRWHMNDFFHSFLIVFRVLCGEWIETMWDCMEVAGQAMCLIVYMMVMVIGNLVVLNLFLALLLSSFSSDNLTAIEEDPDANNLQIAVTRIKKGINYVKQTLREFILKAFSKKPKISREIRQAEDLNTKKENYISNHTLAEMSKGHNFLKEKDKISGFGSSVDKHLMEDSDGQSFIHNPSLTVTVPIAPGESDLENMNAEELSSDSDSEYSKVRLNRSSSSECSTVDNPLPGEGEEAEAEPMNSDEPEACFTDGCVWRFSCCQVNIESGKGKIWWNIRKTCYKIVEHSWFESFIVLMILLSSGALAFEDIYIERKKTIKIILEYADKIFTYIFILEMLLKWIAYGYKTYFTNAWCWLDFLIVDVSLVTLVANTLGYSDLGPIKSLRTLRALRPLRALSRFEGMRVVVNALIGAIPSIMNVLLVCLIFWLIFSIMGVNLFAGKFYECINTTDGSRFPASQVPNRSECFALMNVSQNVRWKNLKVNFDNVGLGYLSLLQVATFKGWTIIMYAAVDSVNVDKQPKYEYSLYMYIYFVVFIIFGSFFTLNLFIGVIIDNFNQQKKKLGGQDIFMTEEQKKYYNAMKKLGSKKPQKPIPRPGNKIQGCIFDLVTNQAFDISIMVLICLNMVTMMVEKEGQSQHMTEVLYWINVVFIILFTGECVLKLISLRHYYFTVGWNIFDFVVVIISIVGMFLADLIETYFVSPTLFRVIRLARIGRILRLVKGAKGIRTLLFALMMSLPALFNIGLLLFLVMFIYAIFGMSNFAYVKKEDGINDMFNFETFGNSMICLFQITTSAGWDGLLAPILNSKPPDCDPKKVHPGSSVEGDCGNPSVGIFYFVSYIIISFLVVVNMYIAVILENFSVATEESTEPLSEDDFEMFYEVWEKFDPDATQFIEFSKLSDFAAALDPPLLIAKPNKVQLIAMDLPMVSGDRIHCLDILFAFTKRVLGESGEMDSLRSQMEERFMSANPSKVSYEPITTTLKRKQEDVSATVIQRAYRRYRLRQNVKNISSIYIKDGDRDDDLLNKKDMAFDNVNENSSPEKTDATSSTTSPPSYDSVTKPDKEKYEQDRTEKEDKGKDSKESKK

| Structure (SMILES) | IC50 [1] [µM] | increase in PWT (paw withdrawal threshold) ([2]; 10 mg/kg, oral (PO), 3 h post administration) | increase in PWT (paw withdrawal threshold) ([2]; 30 mg/kg, oral (PO), 1, 3 and 5 h post administration) |
| --- | --- | --- | --- |
| NC(=O)[C@H](CO)NC(=O)c1cccc(-c2ccc(Oc3ccc(F)cc3)cc2)n1 [Compound 47, 6-[4-(4-fluoro-phenoxy)-phenyl]-pyridine-2-carboxylic acid ((S)-1-carbamoyl-2-hydroxy-ethyl)-amide] | 1.53 ± 0.33 | statistically significant increase | statistically significant increase |
| N#Cc1cccc(S(=O)(=O)NCCNC(=O)c2cccc(-c3ccc(Oc4ccc(F)cc4)cc3)n2)c1 [Compound 24, N-(2-(3-cyanophenylsulfonamido)ethyl)-6-(4-(4-fluorophenoxy)phenyl)picolinamide] | 0.03 ± 0.04 | – | – |
| NC(=O)[C@H](Cc1cccnc1)NC(=O)c1cccc(-c2ccc(Oc3ccc(F)cc3)cc2)n1 [Compound 45, (S)—N-(1-amino-1-oxo-3-(pyridin-3-yl)propan-2-yl)-6-(4-(4-fluorophenoxy)phenyl)picolinamide] | 0.21 ± 0.04 | – | – |
| NC(=O)C[C@H](NC(=O)c1cc([C@H](O)CO)cc(-c2ccc(Oc3ccc(F)cc3)cc2)n1)C(N)=O [Compound 64, (S)-2-(4-((S)-1,2-dihydroxyethyl)-6-(4-(4-fluorophenoxy)phenyl)picolinamido)succinamide] | > 20 | – | – |
| CC(C)C[C@H](NC(=O)c1cccc(-c2ccc(Oc3ccc(F)cc3)cc2)n1)C(N)=O [Compound 44, 6-[4-(4-fluoro-phenoxy)-phenyl]-pyridine-2-carboxylic acid ((S)-1-carbamoyl-3-methyl-butyl)-amide] | 0.34 ± 0.07 | – | – |
| NC(=O)[C@@H]1CCCN1C(=O)c1cccc(-c2ccc(Oc3ccc(F)cc3)cc2)n1 [Compound 42, (S)-1-{6-[4-(4-fluoro-phenoxy)-phenyl]-pyridine-2-carbonyl}-pyrrolidine-2-carboxylic acid amide] | 2.12 ± 0.35 | – | – |
| CC1(C)C2CCC1(CS(=O)(=O)N1CCN(C(=O)c3cccc(-c4ccc(Oc5ccc(F)cc5)cc4)n3)CC1)C(=O)C2 (centres unmarked) [Compound 12, 1-(((4-(6-(4-(4-fluorophenoxy)phenyl)picolinoyl)piperazin-1-yl)sulfonyl)methyl)-7,7-dimethylbicyclo[2.2.1]heptan-2-one] | 0.14 ± 0.04 | – | – |

Now from value to compound, other results behind:

| IC50 [1] [µM] | Structure (SMILES) | increase in PWT (paw withdrawal threshold) ([2]; 10 mg/kg, oral (PO), 3 h post administration) | increase in PWT (paw withdrawal threshold) ([2]; 30 mg/kg, oral (PO), 1, 3 and 5 h post administration) |
| --- | --- | --- | --- |
| 0.43 ± 0.11 | N#Cc1cccc(S(=O)(=O)N2CCN(C(=O)c3cccc(-c4ccc(Oc5ccc(F)cc5)cc4)n3)CC2)c1 [Compound 10, 3-((4-(6(4-(4-fluorophenoxy)phenyl)picolinoyl)piprazin-1-yl)sulfonyl)benzonitrile] | – | – |
| 4.81 ± 0.18 | O=C(O)c1ccc(S(=O)(=O)N2CCN(C(=O)c3cccc(-c4ccc(Oc5ccc(F)cc5)cc4)n3)CC2)cc1 [Compound 19, 4-((4-(6-(4-(4-fluorophenoxy)phenyl)picolinoyl)piperazin-1-yl)sulfonyl)benzoic acid] | – | – |
| 0.19 ± 0.05 | O=C(c1cccc(-c2ccc(Oc3ccc(F)cc3)cc2)n1)N1CCN(S(=O)(=O)c2ccc(OC(F)(F)F)cc2)CC1 [Compound 7, (6-(4-(4-fluorophenoxy)phenyl)pyridin-2-yl)(4-((4-(trifluoromethoxy)phenyl)sulfonyl)piperazin-1-yl)methanone] | – | – |
| 1.31 ± 0.18 | CS(=O)(=O)N1CCN(C(=O)c2cccc(-c3ccc(Oc4ccc(F)cc4)cc3)n2)CC1 [Compound 13, (6-(4-(4-fluorophenoxy)phenyl)pyridin-2-yl)(4-(methylsulfonyl)piperazin-1-yl)methanone] | – | – |
| 0.97 ± 0.13 | N#Cc1ccc(S(=O)(=O)N2CCN(C(=O)c3cccc(-c4ccc(Oc5ccc(F)cc5)cc4)n3)CC2)cc1 [Compound 17, 4-((4-(6-(4-(4-fluorophenoxy)phenyl)picolinoyl)piperazin-1-yl)sulfonyl)benzonitrile] | – | – |
